Measurements reported in US20050215607A1, “Drug composition for prevention or inhibition of advance of diabetic complication” (priority 2002, published 2005).
Structures can show the parent of a compound that is named as a salt. Each block holds one molecule with its values, some of them ahead of it.

Key:
[1] = Required single dose to reduce HbA1C value; assay type: in vivo; conditions: as a single dose
[2] = Disposition (half-life) of mitiglinide; conditions: human, in vivo, oral; single dose of 5 mg and more
[3] = tested on: healthy male adults; test: Clinical study on administration timing; assay type: in vivo, human
Experimental: Administration timing before taking a meal was evaluated in healthy male adults. Used test drugs were a tablet comprising 10 mg of mitiglinide calcium salt hydrate and a placebo tablet. The tablet comprising 10 mg of mitiglinide calcium salt hydrate was administered at 0.5 min, 5 min, 10 min or 30 min before starting meal (Positive group), while the placebo tablet was administered at 0.5 min before starting meal. After administration, blood glucose levels were measured at starting meal and evaluated.

[4] = tested on: type II diabetic patients; test: Clinical study in type II diabetic patients; assay type: in vivo, human; conditions: for Change in HbA1C value, mean value: three times a day just before meals; for Change in 1 hour value of postprandial plasma glucose (PPG), mean value / Change in 2 hour value of postprandial plasma glucose (PPG), mean value / Change in early morning fasting plasma glucose (FPG), mean: at the final evaluation
Experimental: Using the pharmaceutical composition described in Example 1, a clinical study was conducted in type II diabetic patients under the following conditions.
Test drug and Mode of administration: Every patient orally administered either of a combination selected from the following combination groups (one tablet from each) three times a day just before meals (within 5 minutes before starting meal): • The present invention group: (1)+(4) • Positive control group: (2)+(3) • Positive control group: (3)+(4) • (1) a tablet comprising 10 mg of mitiglinide calcium salt hydrate; • (2) a tablet comprising 0.2 mg of voglibose (chemical name: (+)-1L-[1(OH),2,4,5/3]-5-[2-hydroxy-1-(hydroxymethyl)-ethyl]amino-1-C-(hydroxymethyl)-1,2,3,4-cyclohexaneterol); • (3) a placebo tablet of mitiglinide calcium salt hydrate not containing any active ingredient; and • (4) a placebo tablet of voglibose not containing any active ingredient. • Treatment period: 12 weeks
Observation item: The following items were measured before administration, at a certain fixed time after the start of administration and at the completion of administration, and their changes were calculated, or the frequency of adverse drug reactions was calculated, and then evaluated.

[5] = in comparison with voglibose and placebo

- half-life [2]: ~1.5 h
SMILES: O=C(O)[C@H](CC(=O)N1C[C@H]2CCCC[C@H]2C1)Cc1ccccc1 [mitiglinide]
- required dosage to reduce HbA1C value significantly [1]: ≥ 5 mg

- Blood glucose level at starting meal, mean ([3]; 10 mg tablet administered 0.5 min before starting meal): 87.0 mg/dL
- Blood glucose level at starting meal, mean ([3]; 10 mg tablet administered 5 min before starting meal): 83.8 mg/dL
- Blood glucose level at starting meal, mean ([3]; 10 mg tablet administered 10 min before starting meal): 84.2 mg/dL
- Blood glucose level at starting meal, mean ([3]; 10 mg tablet administered 30 min before starting meal): 55.7 mg/dL
- blood glucose level at starting meal (result in words) ([3]; administered at 30 minutes before starting meal): notably declined
- frequencies of hypoglycemic symptoms and gastrointestinal disorders (result in words) ([4]; human, in vivo): decreased
SMILES: O=C(O)[C@H](CC(=O)N1C[C@H]2CCCC[C@H]2C1)Cc1ccccc1 [Mitiglinide calcium salt hydrate, (+)-monocalcium bis[(2S, 3a, 7a-cis)-α-benzylhexahydro-γ-oxo-2-isoindolinebutyrate] dihydrate]
- blood glucose level at starting meal (result in words) ([3]; administered within 10 minutes before starting meal): able to maintain good blood glucose level
- Change in HbA1C value, mean value ([4]; 4 weeks): −0.30%
- Change in HbA1C value, mean value ([4]; 8 weeks): −0.46%
- Change in HbA1C value, mean value ([4]; 12 weeks): −0.46%
- HbA1C value (result in words) ([4]; after 4 weeks after the start of administration, in comparison with voglibose and placebo): significantly lowered
- Change in 1 hour value of postprandial plasma glucose (PPG), mean value ([4]; treatment period 12 weeks): -53.1 mg/dL
- Change in 2 hour value of postprandial plasma glucose (PPG), mean value ([4]; treatment period 12 weeks): -50.1 mg/dL
- Change in early morning fasting plasma glucose (FPG), mean ([4]; treatment period 12 weeks): -8.0 mg/dL
- Frequency of adverse drug reactions: gastrointestinal disorder ([4]; human, in vivo, 12 weeks): 17.6%
- Frequency of adverse drug reactions: hypoglycemic symptoms ([4]; human, in vivo, 12 weeks): 2.0%
- 1 hour and 2 hour values of postprandial plasma glucose (PPG) (result in words) [4, 5]: significantly lowered
- early morning fasting plasma glucose (FPG) (result in words) [4, 5]: significantly lowered
- Change in HbA1C value, mean value ([4]; the final evaluation): −0.44%

SMILES: OCC(CO)N[C@H]1C[C@](O)(CO)[C@@H](O)[C@H](O)[C@H]1O [voglibose, (+)-1L-[1(OH),2,4,5/3]-5-[2-hydroxy-1-(hydroxymethyl)-ethyl]amino-1-C-(hydroxymethyl)-1,2,3,4-cyclohexaneterol, reference compound]
- Change in HbA1C value, mean value ([4]; 4 weeks): −0.14%
- Change in HbA1C value, mean value ([4]; 8 weeks): −0.14%
- Change in HbA1C value, mean value ([4]; 12 weeks): −0.11%
- Change in 1 hour value of postprandial plasma glucose (PPG), mean value ([4]; treatment period 12 weeks): -24.8 mg/dL
- Change in 2 hour value of postprandial plasma glucose (PPG), mean value ([4]; treatment period 12 weeks): -5.1 mg/dL
- Change in early morning fasting plasma glucose (FPG), mean ([4]; treatment period 12 weeks): 0.5 mg/dL
- HbA1C value (result in words) ([4]; in comparison with placebo): significantly lowered
- Change in HbA1C value, mean value ([4]; the final evaluation): −0.11%
- Frequency of adverse drug reactions: gastrointestinal disorder ([4]; treatment period 12 weeks): 24.5%
- Frequency of adverse drug reactions: hypoglycemic symptoms ([4]; treatment period 12 weeks): 4.5%
